Test results from patent US10912752B2, “Methods and compositions for reducing ocular discomfort” (Brien Holden Vision Institute Limited, priority 2012, dated 2021).

Tests used:
[1] = system: ICES-induced murine dry eye model; experiment: Corneal fluorescein staining in ICES-induced murine dry eye model; assay type: in vivo, C57BL/6 mice; conditions: for corneal staining from Day 21 to Day 35: Schedule 2, within-group change
Source text: A total of 110 female C57BL/6 mice (age 4-6 weeks, from the Animal Breeding Unit of Wenzhou Medical College) were used in the study. These mice were carefully selected out of 350 mice by clinical examination using slit-lamp microscopy and corneal staining. Only those healthy mice with no corneal infections, infiltration or leukom, and with total scores of corneal fluorescein staining of less than 10, were selected for the study.
This study used the ICES-induced murine dry eye model in which relative humidity, airflow and temperature were maintained at 15.7±3.2% (mean±SD), 2.1±0.2 m/s and 21-24° C., respectively, and mice began developing dry eye conditions similar to those in humans from Day 21 post-housing (Chen et al A Murine Model of Dry Eye Induced by an Intelligently Controlled Environmental System. Investigative Ophthalmology & Visual Science, 2008: 49(4):1386-1391). The relative humidity and temperature of ICES systems were monitored daily.
Mice in different groups were labelled using ear marks. The mice were housed in cages (maximum of five animals per cage) and two independent cages were placed in each ICES system. Two schedules were used for topical administration of test compounds, Betaine (0.234% (10 mM) in sterile PBS) or Carnitine (0.25% (10 mM) in sterile PBS), or sterile PBS as a control. Mice without any topical treatment were used as another control. In the first schedule, compounds were administered to mice at the beginning of their housing in ICES (Schedule 1) to study the effect of these compounds on the development of dry eye. In the second schedule compound administration began after mice had been housed in ICES for 21 days (Schedule 2), by which time the dry eye condition had been developed (Chen et al. IOVS 2008), to study the effect of these compounds on treatment of dry eye. Compounds were administered topically to both eyes of the animal. The compound solution made in PBS was topically administered four times daily for up to a total of 35 days for Schedule 1, or 14 days for Schedule 2, during which the mice remained housed in ICES.
Four (4×) mice in each cage received individual treatment: A, B, C, D where A=Betaine (10 mM in PBS); B=Carnitine (10 mM in PBS); C=PBS only; D=No treatment.
The cornea was examined using slit-lamp microscopy with cobalt blue light immediately after fluorescein instillation. The stained area was assessed and graded using the 2007 Dry Eye Work Shop (DEW) recommended grading system. The mouse corneas were rated ranging from 0 to 4 with the cornea surface divided into five regions (0 dot, Grade 0; 1-5 dots, Grade 1; 6-15 dots, Grade 2; 16-30 dots, Grade 3; and […], Grade 4). The total score from the five regions was recorded.

HCLE cells [2] = experiment: Flow cytometry Annexin V/PI apoptosis/necrosis under hyperosmotic stress; assay type: cell-based, human; conditions: 16 h; for percentage of healthy cells (Annexin V and PI negative): 500 mOsm + 10 mM vs 500 mOsm; for total percentage of apoptotic and necrotic (damaged) cells: 500 mOsm + 10 mM, flow cytometry
Protocol: (§1) Cell volume and Live/Dead staining via flow cytometry were performed using the Attune® Acoustic focusing Cytometer (Life Technologies™ Applied Biosystems). Annexin V and PI kit (Invitrogen™) was used to analyse the non-apoptotic, and the early and late apoptotic cells. Staining was performed as per manufacturer's instructions. Analysis of Annexin staining was conducted using the blue/violet laser with excitation/emission spectra of 480/500 nm (20 mW) and the PI staining analysis was conducted using blue/red laser with an excitation/emission spectra of 490/635 nm.
500 mOsm and exposure time (16 h) to be the most informative under which to observe hyperosmolality induced cellular responses of HCLE (results not shown). Thus, in the present study, a hyperosmotic medium of 500 mOsm and exposure time of 16 h were used throughout. Hyperosmolar media were prepared by the addition of NaCl to the medium. Medium osmolarity was measured using a Vapro 5520 vapour pressure osmometer (Wescor, Logan, Utah). Subconfluent cells were exposed to hyperosmolar media in the presence or absence of betaine (5 or 10 mM). Mitochondrial and proliferation activities for cell viability; TNF-α production; caspase activity and Annexin V/PI staining for apoptosis; and cellular shrinkage were monitored as detailed below.
It was observed that an osmolarity of 450 mOsM and 500 mOsM and exposure time of 16 hours was the most optimal for studying hyperosmolarity induced cellular responses of HCLE (results not shown). Therefore, a hyperosmolar medium of 450 mOsM and 500 mOsM and an exposure time of 16 hours were used throughout the study. The hyperosmolarity of the medium was achieved by addition of an appropriate amount of NaCl to it, and further measuring using Vapro 5520 vapor pressure osmometer (Wescor, Logan, Utah). Cells, having reached 70%-80% confluence were exposed to hyperosmolar media in the presence or absence of 10 mM L-Carnitine. Cellular shrinkage in relation to hyperosmotic stress, Annexin V/PI staining for apoptosis, Caspase activities and TNF-α production were analysed.
(§2) Cultured human corneal limbal epithelial (HCLE) cells were exposed to culture medium with or without carnitine (10 mM) at 300 mOsm (isotonic), 450 mOsm (moderate), and 500 mOsm (hyperosmotic) for 16 h. Induction of apoptosis was detected by quantification of the proteolytic activity of caspase-8, caspase-9, or caspase-3/7 using caspase activity assays, and production of tumor necrosis factor (TNF)-α, a known apoptosis inducer, using ELISA. Annexin V and Propidium iodine (PI) staining was performed to detect the percentage of apoptotic cells using confocal microscopy and flow cytometry.

caspase-8 = experiment: Caspase-Glo luminescent caspase activity in HCLE under hyperosmotic stress; assay type: cell-based, human; conditions: 16 h; for reduction of caspase-8 activity: 500 mOsm
Protocol: Caspase-3/7, -8 and -9 activities were assayed using a luminescent assay kit (Promega, Madison, Wis.) according to the manufacturer's instructions. Briefly, 100 μL of Caspase-Glo-3/7, -8 and -9 reagents were added to HCLE at maintained on plastic at 2×10^4/cm^2, mixed and incubated for one hour at room temperature. Luminescence was measured using a SpectraFluor Plus microplate reader.
as §2

HCLE cells [3] = experiment: Flow cytometry cell volume (shrunken cells) under hyperosmotic stress; assay type: cell-based, human; conditions: 16 h; for population of shrunken cells: 500 mOsm + 10 mM, flow cytometry
Source text: Forward scatter of the laser light produced by the flow cytometer is proportional to the volume of the cell. This principle was used to analyse the osmoprotective effect of betaine in restoring the cell volume which is adversely affected due to hypertonicity. Cell populations were gated such that the population of cells showing a greater forward scatter (FSC) constituted the percentage of cells with a volume equal to that of a cell under isotonic conditions. On the other hand, the proportion of side scatter in a flow cytometer represents the cell structure complexity and granularity. […] Cells were exposed to isotonic media (300 mOsM), hyperosmotic media (500 mOsM) and hyperosmotic media containing betaine (500 mOsM media+10 mM betaine) for 16 h after which they were analysed using flow cytometer.
as §1
Cultured HCLE cells were exposed to culture medium with or without carnitine (10 mM) at 300 mOsm (isotonic) and 500 mOsm (hyperosmotic) for 16 h. Flow cytometry was performed to determine the cell volume changes based on the forward and side scatter values detected.

[4] = Schedule 1, Day 14, 10 mM in PBS topically four times daily
[5] = Schedule 1, Day 21, 10 mM in PBS topically four times daily

SMILES	corneal staining vs control C (PBS only) or D (no treatment) [1, 4]	corneal staining vs control C (PBS only) or D (no treatment) [1, 5]	corneal staining vs control C or D ([1]; Schedule 1, Day 35, 10 mM in PBS topically four times daily)	corneal staining vs controls C or D ([1]; Schedule 2 (treatment from Day 22 after dry eye developed), Day 35)	corneal staining from Day 21 to Day 35 [1]	increase in the percentage of un-damaged (non-apoptotic/non-necrotic) cells (HCLE cells [2]; 10 mM, 500 mOsm, vs hyperosmotically stressed HCLE)	percentage of healthy cells (Annexin V and PI negative) (HCLE cells [2])	total percentage of apoptotic and necrotic (damaged) cells (HCLE cells [2])	change in Caspase-8 activity (in words) (caspase-8; 10 mM, hypertonic medium)	population of shrunken cells (HCLE cells [3])	population of shrunken cells (HCLE cells [3]; listed as L-Carnitine)	reduction of caspase-8 activity (caspase-8; 5 mM)	reduction of caspase-8 activity (caspase-8; 10 mM)	percentage of healthy (normal volume) cells (HCLE cells [3]; 500 mOsm + 10 mM vs 500 mOsm)
C[N+](C)(C)CC(O)CC(=O)[O-] (centres unmarked) [carnitine, 3-hydroxy-4-(trimethylazaniumyl)butanoate]	statistically significant reduction	statistically significant reduction	reduced corneal staining	statistically significant reduction	statistically significant reduction	63%	increased	~19.0%	minimum or no visible decline	~15%	18.01%			
C[N+](C)(C)CC(=O)[O-] [betaine, trimethylglycine]	statistically significant reduction	statistically significant reduction			statistically significant reduction		considerable increase	15.70%		11.01%		2- to 3 fold	4- to 5.2 fold	significantly increased
